System: purified polypeptide (carbonyl reductase)
Experiment: Substrate specificity of polypeptide (NADPH-dependent reduction of carbonyl compounds)
Format: biochemical, Candida magnoliae strain NBRC0661
Conditions: 1 mM substrate, 0.25 mM NADPH, pH 6.5, 30° C.; relative to activity to 3-oxo-3-phenylpropanenitrile

Compound	Relative activity [%]
CCC(=O)Cc1ccccc1 [1-phenyl-2-butanone]	1144
CC(=O)c1ccccn1 [2-acetylpyridine]	1926
CCC(C)=O [2-butanone]	181
O=C(CCl)c1cccc(Cl)c1 [2-chloro-1-(3′-chlorophenyl)ethanone]	10473
CCCCCC(C)=O [2-heptanone]	782
CCCCC(C)=O [2-hexanone]	602
O=C(CO)c1ccccc1 [2-hydroxyacetophenone]	1806
CCC(=O)C(=O)O [2-keto-n-butyric acid]	1866
COc1ccc(C(C)=O)cc1OC [3,4-dimethoxyacetophenone]	2889
CC(=O)c1cccnc1 [3-acetylpyridine]	2107
N#CCC(=O)c1ccccc1 [3-oxo-3-phenylpropanenitrile]	100
CC(=O)c1ccncc1 [4-acetylpyridine]	15710
CC(=O)CCO [4-hydroxy-2-butanone]	301
CC(=O)CC(C)C [4-methyl-2-pentanone]	60
CC(=O)c1ccccc1 [acetophenone]	1023
CC(=O)CC(=O)OCc1ccccc1 [benzyl acetoacetate]	4936
CC(=O)CCc1ccccc1 [benzylacetone]	241
CC(=O)C1CC1 [cyclopropyl methyl ketone]	181
CCOC(=O)CC(=O)CCl [ethyl 4-chloroacetoacetate]	8547
CCOC(=O)CC(C)=O [ethyl acetoacetate]	903
CCOC(=O)CC(=O)c1ccccc1 [ethyl benzoylacetate]	7704
CC(=O)CO [hydroxyacetone]	361
CC(=O)c1cccc([N+](=O)[O-])c1 [m-nitroacetophenone]	5056
COC(=O)C(C)=O [methyl pyruvate]	9450
O=C(O)CC(=O)C(=O)O [oxalacetic acid]	421
CC(=O)c1ccc(Cl)cc1 [p-chloroacetophenone]	2347
CC(=O)c1ccc(F)cc1 [p-fluoroacetophenone]	722
CC(=O)c1ccc(C)cc1 [p-methylacetophenone]	542
CCC(=O)c1ccccc1 [propiophenone]	3010
